Converted amounts (≈) assume the structure as drawn. Bounds are passed on as bounds.

Holding throughout (assay type): cell-based
For test [1], the system named is LTD4. Nature of the test: Inhibition of the LTD4-induced contraction of strips of guinea pig lung. The settings on record: Cavia porcellus; LTD4 3 ng/ml of bath liquid; lung strips pretreated with indomethacin (10^-6 g/ml); substance added at maximum contraction plateau; 37° C.; read-out: IC50 versus LTD4. How it is done: (§1) The leukotriene-antagonistic action of the substances of the general formula I according to the invention is determined by the inhibition of the leukotriene-induced contraction of strips of guinea pig lung. The method which is used is a modification of the tests described by Foreman, Shelly and Weber (Arch. Int. Pharmacodyn. 278, 193-206 (1985)).
(§2) Guinea pigs are sacrificed by an overdose of ether. The thoracic cavity is opened; the lungs are removed and cut into strips 5 cm long, which are stored in physiological saline. For the measurement, the strips of lung are placed in an organ bath filled with Ringer's solution which is equilibrated at 37° C. and through which carbogen (O2 /CO2 95:5 parts by volume) is passed. The strips are left to equilibrate under a load of 0.5-1 g for 30-60 minutes. The strips of lung are pretreated with indomethacin (10^-6 g/ml of bath liquid) before the test starts.
(§3) The contraction is induced by adding LTC4, LTD4 or LTE4 in a concentration of 3 ng/ml of bath liquid. The test substances are administered therapeutically into the bath, after the maximum contraction plateau has been reached, in several concentrations and at time intervals of 10 minutes. 6-12 strips of lung are used for each concentration of the test substances.
(§4) The concentrations of the test substances at which the contraction is reduced by 50% (IC50) are indicated in μg/ml.

Test [2] relates to LTC4. Nature of the test: Inhibition of the LTC4-induced contraction of strips of guinea pig lung. The settings on record: Cavia porcellus; LTC4 3 ng/ml of bath liquid; lung strips pretreated with indomethacin (10^-6 g/ml); substance added at maximum contraction plateau; 37° C.; read-out: IC50 versus LTC4. How it is done: as §1, §2, §3, §4
Test [3] deals with LTE4. Nature of the test: Inhibition of the LTE4-induced contraction of strips of guinea pig lung. The settings on record: Cavia porcellus; LTE4 3 ng/ml of bath liquid; lung strips pretreated with indomethacin (10^-6 g/ml); substance added at maximum contraction plateau; 37° C.; read-out: IC50 versus LTE4. The protocol:
as §1, §2, §3, §4

As a reminder, the IC50 is the concentration that inhibits the measured activity by half. Consider `CCCS[C@@H](c1ccccc1)[C@H](O)CSCC(=O)OC` (racemic) [Compound E, Methyl (5RS,6SR)-5-hydroxy-6-phenyl-3,7-dithiadecanoate], for which the half-inhibitory concentration (IC50) was 0.6 to 1 µg/mL (≈ 1.91 to 3.18 µM) in test [1], 6 µg/mL (≈ 19.1 µM) in test [2] and 6 to 10 µg/mL (≈ 19.1 to 31.8 µM) in test [3].

Regarding `COC(=O)CSC[C@@H](O)[C@@H](Sc1cccc(OC)c1)c1ccccc1` (racemic) [Compound B, Methyl (5RS,6SR)-5-hydroxy-6-(3-methoxyphenylthio)-6-phenyl-3-thiahexanoate], the IC50 was 0.6 µg/mL (≈ 1.59 µM) in test [1], 0.6 to 1 µg/mL (≈ 1.59 to 2.64 µM) in test [2] and 1 µg/mL (≈ 2.64 µM) in test [3].

As to `CCCS[C@@H](c1ccccc1)[C@H](O)COCC(=O)OC` (racemic) [Compound D, Methyl (5RS,6SR)-5-hydroxy-6-phenyl-3-oxa-7-thiadecanoate], the results for the IC50 in test [1], in test [2] and in test [3] were 0.5 µg/mL (≈ 1.68 µM), above 10 µg/mL and above 10 µg/mL, respectively.

Turning to `COC(=O)CSC[C@H](O)[C@H](Sc1cccc(OC)c1)c1ccccc1` [Compound C, Methyl (5 S,6 R)(-)-5-hydroxy-6-(3-methoxyphenylthio)-6-phenyl-3-thiahexanoate], the figures for the IC50 in test [1], in test [2] and in test [3] were 0.1 µg/mL (≈ 0.264 µM), 0.3 to 0.6 µg/mL (≈ 0.793 to 1.59 µM) and 0.3 to 0.6 µg/mL (≈ 0.793 to 1.59 µM), respectively.

With `COC(=O)COC[C@@H](O)[C@@H](Sc1cccc(OC)c1)c1ccccc1` (racemic) [Compound A, Methyl (5RS,6SR)-5-hydroxy-6-(3-methoxyphenylthio)-6-phenyl-3-oxahexanoate], the IC50 turned out to be 0.3 µg/mL (≈ 0.828 µM) in test [1], 0.6 µg/mL (≈ 1.66 µM) in test [2] and 1 µg/mL (≈ 2.76 µM) in test [3].

These data come from US4851440A, “Leukotriene antagonists, processes for the preparation thereof, the use thereof for the treatment of diseases, and precursors” (Hoechst Aktiengesellschaft, priority 1987, dated 1989).
